Measurements published in patent US20240041796A1, “ANTI-INFLAMMATORY COMPOSITION COMPRISING N-BENZYL-N-METHYLDECAN-1-AMINE OR A DERIVATIVE THEREOF AS AN ACTIVE INGREDIENT” (PUSAN NATIONAL UNIVERSITY INDUSTRY-UNIVERSITY COOPERATION …, priority 2022, published 2024).

Columns and labels:
NF-KB P65 protein = experiment: NF-KB P65 distribution in cytoplasm and nucleus of LPS-treated THP-1 cells, immunoblotting; format: cell-based, human; conditions: FIG. 2D
Excerpt: Moreover, the mononuclear THP-1 cell line treated with lipopolysaccharide (LPS) and BMDA/DMMA under the same conditions was partitioned into cytoplasmic and nuclear portions. Distribution of NF-KB P65 protein in the cytoplasm and nucleus was examined based on immunoblotting.

DBA/J1 male mice [1] = experiment: Rheumatoid arthritis model induced by type 2 bovine collagen, oral administration; format: in vivo, mouse; conditions: for inflammation and synovitis of joint tissues: H&E stained joint sections, FIG. 5A-B; for expression of HO-1 in the joints / expression of Nrf2 in the joints: immunoblotting, FIG. 6B; for length of the spleen / weight of the spleen / swelling of the feet / weight loss caused by rheumatism induced by collagen: oral 20 mg/body weight Kg for 21 days; for length of the spleen / weight of the spleen: vs control, FIG. 4C-D; for swelling of the feet: vs soybean oil control, FIG. 4A-B; for weight loss caused by rheumatism induced by collagen: FIG. 4B
Description: Rheumatoid arthritis was induced in 7-week-old DBA/J1 male mice. We thoroughly mixed the type 2 collagen at a concentration of 2 mg/mL with CFA (Complete Freund's Adjuvant) in the mixing ratio 1:1. We injected 0.1 mL (100 μg) of the mixture intradermally to a position away 2 cm from a base of the tail. After 2 weeks, we mixed the type 2 collagen with IFA instead of CFA in the mixing ratio 1:1. We administered the mixture subcutaneously to the base of the tail in the same amount and volume as those in the first injection. After 3 days, we grouped the mice into 4 groups and performed second administration thereto.
(§1) In one example, BMDA (FMJ-G0) and a derivative thereof (DMMA, FMJ-G4) at a concentration of 2.5 mg/mL were orally administered to male mice in a volume of 200 μL (20 mg/body weight Kg) for 21 days. In a control group, soybean oil was orally administered thereto.
(§2) During the experiment, the insteps of the forelimbs and hindlimbs were measured with a caliper three times a week, and the mice were suffocated, and joint areas were prepared for immunohistochemical staining and immunoblotting. Moreover, the spleen was removed therefrom and a size thereof was measured. Further, blood was drawn through the hepatic portal vein to prepare serum. A specific method was as follows. • 1) Paraffin sections were prepared as the joints including the ankles of the forelimbs. At this time, decalcification is performed first, followed by sectioning the same at a thickness of 4 μm, and H&E staining. • 2) The cell lysis solution was added thereto, and then we crushed the tissue with a sonicator, which was prepared for immunoblotting. • 3) Trisol solution was added to the joint tissue, the tissue was pulverized in a sonicator, and centrifuged, and the Trisol solution was used to precipitate proteins and DNA for entire RNA separation, and the entire RNA was collected from the supernatant obtained via the centrifugation. c-DNA was synthesized using oligo-dT primer and reverse transcriptase, and then, quantitative qRT-PCR and immunoblotting were performed thereon.

DBA/J1 male mice [2] = experiment: Serum AST and ALT activity (hepatotoxicity indicators) in the collagen-induced rheumatoid arthritis model; format: in vivo, mouse; conditions: oral administration for 3 weeks; FIG. 7
Description: as §1, §2

Balb/C mice = experiment: DNCB-induced atopic dermatitis model, cosmetic cream applied to the skin; format: in vivo, mouse; conditions: for DNCB-induced atopic dermatitis (level of dermatitis): cosmetic cream (0.3% active; Lidomax ointment 0.15%) applied to the back for 2 weeks, 9C; for DNCB-induced atopic dermatitis (level of dermatitis) / hair regrowth on the skin: FIG. 9A; for size of the (inguinal) lymph node: cosmetic cream (Lidomax ointment 0.15%) applied for 2 weeks, FIG. 9B, 9D; for hair regrowth on the skin: cosmetic cream applied for 2 weeks; for thickness of the dermis: hematoxylin-eosin stained skin sections, FIG. 10A-B; for phosphorylation level of JNK in skin / phosphorylation level of NF-KB in skin / phosphorylation level of p38MAPK in skin: immunoblotting, FIG. 11D; for phosphorylation level of JNK in skin / phosphorylation level of NF-KB in skin / phosphorylation level of p38MAPK in skin / concentration of IgE in the blood: vs control group; for amount of COX2 transcriptome in skin / amount of IL-1β transcriptome in skin / amount of IL-6 transcriptome in skin / amount of TNF-α transcriptome in skin / amount of iNOS transcriptome in skin: qRT-PCR, vs DNCB control, FIG. 11A-C; for concentration of IgE in the blood: serum ELISA, 2 weeks of treatment, FIG. 10D; for invasion of mast cells into the dermis: toluidine-blue staining, FIG. 10C
Description: Wed added 0.3 g of olive wax to 2 mL of soybean oil (Sigma-Aldrich) in a glass tube (15 ml), and put the tube in a 75° C. water-bath, and performed a double boiling thereon to melt the olive wax for 30 minutes while vortexing the tube at 10 minute interval. Under the same conditions, 7.7 ml of purified water was put into a 75° C. water-bath and heated the same for 30 minutes. Next, 7.5 ml of purified water was poured into the tube containing the olive wax and the mixture was stirred well via vortexing. Then, […] (0.3%) of each of BMDA and derivatives thereof (FMJ-G0, FMJ-G4, FMJ-G1, FMJ-G2, FMJ-G3) as synthesized in Examples 1 and 3 were added to the mixture, followed by stirring. The reaction product was cooled in ice and prepared in the form of a cosmetic cream.
In order to induce atopic dermatitis using 5-week-old Balb/C mice, hair on the back of the mouse was removed therefrom, and after one day, a 0.5% solution in which DNCB (2,4-dinitrochlorobenzne) is mixed with acetone and olive oil (3:1) was prepared, and then was applied thereon for 3 consecutive days by 150 μL per each day. Thereafter, the solution of the same concentration was applied to the back area from which the hair was removed twice a week and this process continued for 2 weeks. Further, to alleviate atopic dermatitis induced in this way, the cosmetic cream containing each of BMDA (FMJ-G0) and the derivatives thereof (FMJ-G4, FMJ-G1, FMJ-G2, FMJ-G3) of the present disclosure as prepared above was applied to the back of rats with the induced atopic dermatitis for 2 weeks, and then, changes in skin inflammation were examined.
The experimental results of FIG. 10A and FIG. 10B was obtained as follows as in FIG. 9. The skin tissue was removed from the back of the mouse in the group, and was placed fixedly in 10% formaldehyde for 48 hours, and paraffin pieces were made, and the pieces were thinly sliced so as to have a thickness of 4 μm and was subjected to hematoxylin-esoin staining. Then, whether the damaged skin tissue was recovered by each of BMDA (FMJ-G0) and DMMA (FMJ-G4) was examined using an optical microscope equipped with a Leica application (Leica Microsystems, Switzerland).
To this end, the atopic dermatitis is induced in FIG. 9, and on 2 weeks since the treatment with BMDA (FMJ-G0) and DMMA (FMJ-G4), blood (500 ul) is collected from the hepatic veins of the rats of the above groups, and left at room temperature for 30 minutes. Then, serum was separated and prepared via centrifugation, and then, the IgE concentration related to the allergic reaction was measured through ELISA using the serum thus prepared.
Anti-mouse IgE (Pharmingen, CA, USA) was diluted with PBS (pH 7.4) on a 96-well plate, 100 μL thereof was coated on each 96-well plate, and then left at 4° C. for 12 hours. The plate was washed with PBS containing 0.05% tween. Blocking was performed thereon for 1 hour with PBS containing 1% BSA, 5% sucrose, and 0.05% NaN3. Washing was performed thereon several times using washing buffer. Recombinant IgE and serum were added thereto, and reaction occurred at 37° C. for 2 hours, and each well was washed again, and biotinylated IgE (Pharmingen, CA, USA) was added thereto. Reaction occurred for 2 hours. After washing the well, avidin peroxidase was added thereto and reaction occurred at 37° C. for 30 minutes. Then, the well was washed and then, ABTS solution as a substrate was added thereto. Absorbance was measured at 405 nm using ELISA reader (Epoch2, Biotek, VT, USA).
FIG. 11 show data obtained as follows. The atopic dermatitis was induced as described in FIG. 9, and on 2 weeks since the treatment with BMDA or DMMA (FMJ-G0/G4), a portion of the skin tissue of the rats in the groups were put in Trisol solution and the tissue was crushed in a sonicator. […]

SMILES	NF-KB expression and migration in the nucleus (NF-KB P65 protein)	activity of the transcription factor NF-KB (NF-KB P65 protein)	inflammation and synovitis of joint tissues (DBA/J1 male mice [1])	expression of HO-1 in the joints (DBA/J1 male mice [1])	expression of Nrf2 in the joints (DBA/J1 male mice [1])	length of the spleen (DBA/J1 male mice [1])	weight of the spleen (DBA/J1 male mice [1])	swelling of the feet (DBA/J1 male mice [1])	weight loss caused by rheumatism induced by collagen (DBA/J1 male mice [1])	activity of ALT enzyme in serum (DBA/J1 male mice [2])	activity of AST enzyme in serum (DBA/J1 male mice [2])	DNCB-induced atopic dermatitis (level of dermatitis) (Balb/C mice)	size of the (inguinal) lymph node (Balb/C mice)	hair regrowth on the skin (Balb/C mice)	thickness of the dermis (Balb/C mice)	phosphorylation level of JNK in skin (Balb/C mice)	phosphorylation level of NF-KB in skin (Balb/C mice)	phosphorylation level of p38MAPK in skin (Balb/C mice)	amount of COX2 transcriptome in skin (Balb/C mice)	amount of IL-1β transcriptome in skin (Balb/C mice)	also measured
CCCCCCCCCCN(C)Cc1ccccc1 [BMDA, N-benzyl-N-methyldecan-1-amine]	inhibited	inhibited	significantly reduced	increased	increased	reduced	reduced	much smaller	did not restore	did not increase	did not increase	significantly alleviated	the same as that of the spleen	observed	significantly reduced	significantly lowered	significantly lowered	significantly lowered	markedly lowered	markedly lowered	amount of IL-6 transcriptome in skin (Balb/C mice): markedly lowered; amount of TNF-α transcriptome in skin (Balb/C mice): markedly lowered; amount of iNOS transcriptome in skin (Balb/C mice): markedly lowered; concentration of IgE in the blood (Balb/C mice): significantly lower; invasion of mast cells into the dermis (Balb/C mice): prevents
CCCCCCCCCCN(C)Cc1ccc(OC)cc1 [DMMA, Decyl-(4-methoxy-benzyl)-methyl-amine]	inhibited	inhibited	significantly reduced	increased	increased	reduced	reduced	much smaller	did not restore	did not increase	did not increase	significantly alleviated	the same as that of the spleen	observed	significantly reduced	significantly lowered	significantly lowered	significantly lowered	markedly lowered	markedly lowered	amount of IL-6 transcriptome in skin (Balb/C mice): markedly lowered; amount of TNF-α transcriptome in skin (Balb/C mice): markedly lowered; amount of iNOS transcriptome in skin (Balb/C mice): markedly lowered; concentration of IgE in the blood (Balb/C mice): significantly lower; invasion of mast cells into the dermis (Balb/C mice): prevents
